Measured values from US12403137B2, “Compounds and methods of use” (Tango Therapeutics, Inc., priority 2019, dated 2025).

Assays:
[1] = biological target: T1, PRMT5 (Homo sapiens, UniProt O14744); assay: PRMT5 inhibition assay with SAM as cofactor; type: biochemical; conditions: against PRMT5 in the presence of SAM as cofactor
T1 construct: purchased Viva (custom protein)
Source text: (§1) The Ki values can be calculated from the IC50 values as described in the Examples section. As detailed in the Examples section, for the assay performed in the presence of SAM, IC50=Ki×1.5 (Ki=IC50/1.5). For the assay performed in the presence of MTA, IC50=Ki×13.5 (Ki=IC50/13.5). Column 6 indicates the ratio between the Ki of compounds in the presence of SAM and the Ki of compounds in the presence of MTA

[2] = biological target: T1, PRMT5; assay: PRMT5 inhibition assay with no cofactor; type: biochemical; conditions: against PRMT5 with no cofactor; read-out: No Co-factor IC50
[3] = biological target: T1, PRMT5; assay: PRMT5 inhibition assay with MTA as cofactor; type: biochemical; conditions: for IC50: against PRMT5 with MTA as cofactor; for SAM/MTA Ratio: ratio of Ki in the presence of SAM to Ki in the presence of MTA, Ki=IC50/1.5 (SAM), Ki=IC50/13.5 (MTA)
Source text: as §1

[4] = system: HAP1 MTAP-intact cell line; assay: SDMA in-cell western assay, HAP1 MTAP-intact; type: cell-based; conditions: Homo sapiens
How it was run: (§2)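 Symmetric dimethylarginine (SDMA) levels were measured by in-cell western in an isogenic HAP1 pair. One line expresses endogenous MTAP and the other is MTAP-null, with an IC50 derived in each.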

[5] = system: HAP1 MTAP-deleted cell line; assay: SDMA in-cell western assay, HAP1 MTAP-deleted; type: cell-based; conditions: for IC50: Homo sapiens, HAP1 MTAP-deleted (MTAP-null) cell line; for MTAP Intact/Deleted Ratio: IC50 ratio HAP1 MTAP-intact / HAP1 MTAP-deleted, >=3 fold considered MTAP-selective
How it was run: as §2

T1 sequence (O14744 whole entry): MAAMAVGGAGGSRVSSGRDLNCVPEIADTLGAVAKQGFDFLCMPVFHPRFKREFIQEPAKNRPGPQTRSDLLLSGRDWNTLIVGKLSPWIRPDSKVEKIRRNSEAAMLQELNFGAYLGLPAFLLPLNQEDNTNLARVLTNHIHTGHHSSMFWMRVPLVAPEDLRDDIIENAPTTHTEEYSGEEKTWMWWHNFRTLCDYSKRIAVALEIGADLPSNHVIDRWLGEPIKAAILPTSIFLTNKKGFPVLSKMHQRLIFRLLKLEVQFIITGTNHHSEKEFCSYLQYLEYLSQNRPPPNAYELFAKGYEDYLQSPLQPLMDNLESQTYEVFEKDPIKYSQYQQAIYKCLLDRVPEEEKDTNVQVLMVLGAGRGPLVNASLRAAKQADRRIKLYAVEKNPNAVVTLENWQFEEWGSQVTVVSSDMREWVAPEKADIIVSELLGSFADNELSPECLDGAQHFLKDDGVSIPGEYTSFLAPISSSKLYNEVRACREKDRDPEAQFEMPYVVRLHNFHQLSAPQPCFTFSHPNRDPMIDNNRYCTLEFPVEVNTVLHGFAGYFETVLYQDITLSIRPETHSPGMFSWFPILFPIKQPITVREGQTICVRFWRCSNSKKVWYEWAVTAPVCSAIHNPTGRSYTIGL
T1 sequence (Q9BQA1 whole entry partner): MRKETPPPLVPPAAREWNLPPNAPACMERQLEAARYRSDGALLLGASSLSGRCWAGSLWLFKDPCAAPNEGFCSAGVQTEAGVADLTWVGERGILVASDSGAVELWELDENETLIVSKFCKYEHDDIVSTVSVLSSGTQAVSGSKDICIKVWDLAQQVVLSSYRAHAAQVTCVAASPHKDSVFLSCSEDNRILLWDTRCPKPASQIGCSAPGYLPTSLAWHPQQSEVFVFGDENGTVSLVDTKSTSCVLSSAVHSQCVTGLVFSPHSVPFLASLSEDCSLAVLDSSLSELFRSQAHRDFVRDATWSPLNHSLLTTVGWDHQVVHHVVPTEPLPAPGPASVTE

SMILES | IC50 [1] [nM] | IC50 [2] [nM] | IC50 [3] [nM] | SAM/MTA Ratio [3] | IC50 [4] [nM] | IC50 [5] [nM] | MTAP Intact/Deleted Ratio [5]
CC(=O)N1CC(Nc2cc(C(=O)NC[C@@H](O)[C@@H]3Cc4ccc(OCc5ocnc5C)cc4CN3)nc(N3CCN(C(C)C)CC3)n2)C1 [Compound 47, 6-[(1-acetylazetidin-3-yl)amino]-N-[(2R)-2-hydroxy-2-[(3S)-7-[(4-methyloxazol-5-yl)methoxy]-1,2,3,4-tetrahydroisoquinolin-3-yl]ethyl]-2-(4-isopropylpiperazin-1-yl)pyrimidine-4-carboxamide] | 50 to 500 | 50 to 500 | < 50 | A (a Ki ratio greater than or equal to 10 fold between the Ki in the presence of SAM and the Ki in the presence of MTA) | ≥ 10000 | 1000 to 10000 | C* (an IC50 ratio of less than 3 fold between the IC50 in the HAP1 MTAP-intact cell line and the HAP1 MTAP-deleted cell line)
Cc1ncoc1COc1ccc2c(c1)CN[C@H]([C@H](O)CNC(=O)c1cc(NC3CCC3)nc(N3CCCCC3)n1)C2 [Compound 49, 6-(cyclobutylamino)-N-[(2R)-2-hydroxy-2-[(3S)-7-[(4-methyloxazol-5-yl)methoxy]-1,2,3,4-tetrahydroisoquinolin-3-yl]ethyl]-2-(1-piperidyl)pyrimidine-4-carboxamide] | 50 to 500 | 50 to 500 | < 50 | A (a Ki ratio greater than or equal to 10 fold between the Ki in the presence of SAM and the Ki in the presence of MTA) | 1000 to 10000 | < 1000 | A* (an IC50 ratio greater than or equal to 10 fold between the IC50 in the HAP1 MTAP-intact cell line and the HAP1 MTAP-deleted cell line)
CC(=O)N1CCC(Nc2cc(C(=O)NC[C@@H](O)[C@@H]3Cc4ccc(OCc5ocnc5C)cc4CN3)nc(N3CCCCC3)n2)CC1 [Compound 50, 6-[(1-acetyl-4-piperidyl)amino]-N-[(2R)-2-hydroxy-2-[(3S)-7-[(4-methyloxazol-5-yl)methoxy]-1,2,3,4-tetrahydroisoquinolin-3-yl]ethyl]-2-(1-piperidyl)pyrimidine-4-carboxamide] | 50 to 500 | 50 to 500 | < 50 | A (a Ki ratio greater than or equal to 10 fold between the Ki in the presence of SAM and the Ki in the presence of MTA) | < 1000 | < 1000 | A* (an IC50 ratio greater than or equal to 10 fold between the IC50 in the HAP1 MTAP-intact cell line and the HAP1 MTAP-deleted cell line)
CC(=O)N1CC(Nc2cc(C(=O)NC[C@@H](O)[C@@H]3Cc4ccc(OCc5ocnc5C)cc4CN3)nc(N3CC4CC(C4)C3)n2)C1 [Compound 51, 6-[(1-acetylazetidin-3-yl)amino]-2-(3-azabicyclo[3.1.1]heptan-3-yl)-N-[(2R)-2-hydroxy-2-[(3S)-7-[(4-methyloxazol-5-yl)methoxy]-1,2,3,4-tetrahydroisoquinolin-3-yl]ethyl]pyrimidine-4-carboxamide] | 50 to 500 | 50 to 500 | < 50 | A (a Ki ratio greater than or equal to 10 fold between the Ki in the presence of SAM and the Ki in the presence of MTA) | 1000 to 10000 | < 1000 | A* (an IC50 ratio greater than or equal to 10 fold between the IC50 in the HAP1 MTAP-intact cell line and the HAP1 MTAP-deleted cell line)
Cc1ncoc1COc1ccc2c(c1)CN[C@H]([C@H](O)CNC(=O)c1cc(NC3CCC3)nc(N3CCN(C)CC3)c1)C2 [Compound 52, 2-(cyclobutylamino)-N-[(2R)-2-hydroxy-2-[(3S)-7-[(4-methyloxazol-5-yl)methoxy]-1,2,3,4-tetrahydroisoquinolin-3-yl]ethyl]-6-(4-methylpiperazin-1-yl)pyridine-4-carboxamide] | 50 to 500 | 50 to 500 | < 50 | A (a Ki ratio greater than or equal to 10 fold between the Ki in the presence of SAM and the Ki in the presence of MTA) | < 1000 | < 1000 | A* (an IC50 ratio greater than or equal to 10 fold between the IC50 in the HAP1 MTAP-intact cell line and the HAP1 MTAP-deleted cell line)
CC(=O)N1CC(Nc2cc(C(=O)NC[C@@H](O)[C@@H]3Cc4ccc(OCc5ocnc5C)cc4CN3)nc(N3CC4CCC3C4)n2)C1 (stereo partly drawn) [Compound 53, 6-[(1-acetylazetidin-3-yl)amino]-2-(3-azabicyclo[2.2.1]heptan-3-yl)-N-[(2R)-2-hydroxy-2-[(3S)-7-[(4-methyloxazol-5-yl)methoxy]-1,2,3,4-tetrahydroisoquinolin-3-yl]ethyl]pyrimidine-4-carboxamide] | 50 to 500 | 50 to 500 | < 50 | A (a Ki ratio greater than or equal to 10 fold between the Ki in the presence of SAM and the Ki in the presence of MTA) | 1000 to 10000 | < 1000 | A* (an IC50 ratio greater than or equal to 10 fold between the IC50 in the HAP1 MTAP-intact cell line and the HAP1 MTAP-deleted cell line)
CC(=O)N1CCC(Nc2cc(C(=O)NC[C@@H](O)[C@@H]3Cc4ccc(OCc5ocnc5C)cc4CN3)cc(N3CCN(C)CC3)n2)CC1 [Compound 54, 2-[(1-acetyl-4-piperidyl)amino]-N-[(2R)-2-hydroxy-2-[(3S)-7-[(4-methyloxazol-5-yl)methoxy]-1,2,3,4-tetrahydroisoquinolin-3-yl]ethyl]-6-(4-methylpiperazin-1-yl)pyridine-4-carboxamide] | 50 to 500 | 50 to 500 | < 50 | A (a Ki ratio greater than or equal to 10 fold between the Ki in the presence of SAM and the Ki in the presence of MTA) | ≥ 10000 | 1000 to 10000 | C* (an IC50 ratio of less than 3 fold between the IC50 in the HAP1 MTAP-intact cell line and the HAP1 MTAP-deleted cell line)
CCN1CCN(c2cc(C(=O)NC[C@@H](O)[C@@H]3Cc4ccc(OCc5ocnc5C)cc4CN3)cc(NC3CCC3)n2)CC1 [Compound 55, 2-(cyclobutylamino)-6-(4-ethylpiperazin-1-yl)-N-[(2R)-2-hydroxy-2-[(3S)-7-[(4-methyloxazol-5-yl)methoxy]-1,2,3,4-tetrahydroisoquinolin-3-yl]ethyl]pyridine-4-carboxamide] | 50 to 500 | 50 to 500 | < 50 | A (a Ki ratio greater than or equal to 10 fold between the Ki in the presence of SAM and the Ki in the presence of MTA) | < 1000 | < 1000 | B* (an IC50 ratio greater than or equal to 3 fold but lower than 10 fold between the IC50 in the HAP1 MTAP-intact cell line and the HAP1 MTAP-deleted cell line)
CC(=O)N1CC(Nc2cc(C(=O)NC[C@@H](O)[C@@H]3Cc4ccc(OCc5ocnc5C)cc4CN3)nc(N3CC4CCC(C4)C3)n2)C1 [Compound 56, 6-[(1-acetylazetidin-3-yl)amino]-2-(3-azabicyclo[3.2.1]octan-3-yl)-N-[(2R)-2-hydroxy-2-[(3S)-7-[(4-methyloxazol-5-yl)methoxy]-1,2,3,4-tetrahydroisoquinolin-3-yl]ethyl]pyrimidine-4-carboxamide] | 50 to 500 | 50 to 500 | < 50 | A (a Ki ratio greater than or equal to 10 fold between the Ki in the presence of SAM and the Ki in the presence of MTA) | 1000 to 10000 | < 1000 | A* (an IC50 ratio greater than or equal to 10 fold between the IC50 in the HAP1 MTAP-intact cell line and the HAP1 MTAP-deleted cell line)
Cc1ncoc1COc1ccc2c(c1)CN[C@H]([C@H](O)CNC(=O)c1cc(NC3CC4(CCC4)C3)nc(N3CCCCC3)n1)C2 [Compound 57, N-[(2R)-2-hydroxy-2-[(3S)-7-[(4-methyloxazol-5-yl)methoxy]-1,2,3,4-tetrahydroisoquinolin-3-yl]ethyl]-2-(1-piperidyl)-6-(spiro[3.3]heptan-2-ylamino)pyrimidine-4-carboxamide] | 50 to 500 | 50 to 500 | 50 to 500 | A (a Ki ratio greater than or equal to 10 fold between the Ki in the presence of SAM and the Ki in the presence of MTA) | 1000 to 10000 | < 1000 | A* (an IC50 ratio greater than or equal to 10 fold between the IC50 in the HAP1 MTAP-intact cell line and the HAP1 MTAP-deleted cell line)
Cc1ncoc1COc1ccc2c(c1)CN[C@H]([C@H](O)CNC(=O)c1cc(NC3CCC3)cc(N3CCCCC3)c1)C2 [Compound 58, 3-(cyclobutylamino)-N-[(2R)-2-hydroxy-2-[(3S)-7-[(4-methyloxazol-5-yl)methoxy]-1,2,3,4-tetrahydroisoquinolin-3-yl]ethyl]-5-(1-piperidyl)benzamide] | 50 to 500 | 50 to 500 | < 50 | A (a Ki ratio greater than or equal to 10 fold between the Ki in the presence of SAM and the Ki in the presence of MTA) | 1000 to 10000 | < 1000 | A* (an IC50 ratio greater than or equal to 10 fold between the IC50 in the HAP1 MTAP-intact cell line and the HAP1 MTAP-deleted cell line)
